Laboratory results as given in ChEMBL document CHEMBL5696442, “Discovery of type II inhibitors of TGFβ-activated kinase 1 (TAK1) and mitogen-activated protein kinase kinase kinase kinase 2 (MAP4K2)” (J Med Chem, 2015).
Calls of active or inactive are those of the source. No cut-off for these calls is given here.

Legend:
[1] = molecular target: Calcium/calmodulin-dependent protein kinase type II subunit delta (Homo sapiens) (UniProt Q13557); assay: Inhibition of CaMK2d Lys2 labeling site in human Huh-7 cell lysate at 1 uM by KiNativ Profiling analysis relative to control; type: subcellular
[2] = molecular target: Calcium/calmodulin-dependent protein kinase type II subunit gamma (Homo sapiens) (UniProt Q13555); assay: Inhibition of CaMK2g Lys2 labeling site in human Huh-7 cell lysate at 1 uM by KiNativ Profiling analysis relative to control; type: subcellular
[3] = molecular target: T1, Mitogen-activated protein kinase kinase kinase 3 (Homo sapiens) (UniProt Q99759); assay: Inhibition of MAP3K3 Lys2 labeling site in human Huh-7 cell lysate at 1 uM by KiNativ Profiling analysis relative to control; type: subcellular
T1 sequence (whole entry): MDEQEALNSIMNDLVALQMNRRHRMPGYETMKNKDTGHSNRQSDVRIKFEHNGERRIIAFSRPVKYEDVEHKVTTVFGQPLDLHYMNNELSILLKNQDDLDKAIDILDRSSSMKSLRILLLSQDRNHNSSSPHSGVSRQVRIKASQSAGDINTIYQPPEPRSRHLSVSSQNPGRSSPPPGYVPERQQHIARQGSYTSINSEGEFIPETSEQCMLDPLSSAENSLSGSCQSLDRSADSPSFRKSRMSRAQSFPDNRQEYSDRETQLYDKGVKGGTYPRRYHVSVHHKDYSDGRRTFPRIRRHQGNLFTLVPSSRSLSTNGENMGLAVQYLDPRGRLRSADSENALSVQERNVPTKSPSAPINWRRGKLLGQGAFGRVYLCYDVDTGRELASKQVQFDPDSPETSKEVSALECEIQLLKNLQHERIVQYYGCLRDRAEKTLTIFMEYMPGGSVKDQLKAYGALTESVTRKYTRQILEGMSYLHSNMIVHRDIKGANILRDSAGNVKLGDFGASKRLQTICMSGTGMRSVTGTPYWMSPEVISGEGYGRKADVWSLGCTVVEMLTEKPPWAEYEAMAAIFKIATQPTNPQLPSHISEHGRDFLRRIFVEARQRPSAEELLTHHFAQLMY

[4] = molecular target: Dual specificity mitogen-activated protein kinase kinase 1 (Homo sapiens) (UniProt Q02750); assay: Inhibition of MAP2K1 Lys2 labeling site harbouring IMHRDVKPSNILVNSR in human Huh-7 cells at 1 uM by KiNativ Profiling analysis relative to control; type: cell-based
[5] = molecular target: STE20/SPS1-related proline-alanine-rich protein kinase (Homo sapiens) (UniProt Q9UEW8); assay: Inhibition of STLK3 Lys2 labeling site in human Huh-7 cells at 1 uM by KiNativ Profiling analysis relative to control; type: cell-based
[6] = molecular target: Serine/threonine-protein kinase 32C (Homo sapiens) (UniProt Q86UX6); assay: Inhibition of YANK3 Lys2 labeling site in human Huh-7 cells at 1 uM by KiNativ Profiling analysis relative to control; type: cell-based
[7] = molecular target: Epidermal growth factor receptor (Homo sapiens) (UniProt P00533); assay: Inhibition of EGFR (unknown origin) at 10 uM by Ambit Kinomescan binding assay relative to control
[8] = molecular target: MAP/microtubule affinity-regulating kinase 3 (Homo sapiens) (UniProt P27448); assay: Inhibition of MARK3 (unknown origin) at 10 uM by Ambit Kinomescan binding assay
[9] = molecular target: Serine/threonine-protein kinase 10 (Homo sapiens) (UniProt O94804); assay: Inhibition of LOK Lys1 labeling site harbouring ETGALAAAKVIETK in human A-375 cells at 5 uM by KiNativ Profiling analysis relative to control; type: cell-based
[10] = molecular target: T2, Phosphatidylinositol 5-phosphate 4-kinase type-2 alpha (Homo sapiens) (UniProt P48426); assay: Inhibition of PIP4K2A ATP labeling site in human A-375 cells at 0.05 uM by KiNativ Profiling analysis relative to control; type: cell-based
T2 sequence (whole entry): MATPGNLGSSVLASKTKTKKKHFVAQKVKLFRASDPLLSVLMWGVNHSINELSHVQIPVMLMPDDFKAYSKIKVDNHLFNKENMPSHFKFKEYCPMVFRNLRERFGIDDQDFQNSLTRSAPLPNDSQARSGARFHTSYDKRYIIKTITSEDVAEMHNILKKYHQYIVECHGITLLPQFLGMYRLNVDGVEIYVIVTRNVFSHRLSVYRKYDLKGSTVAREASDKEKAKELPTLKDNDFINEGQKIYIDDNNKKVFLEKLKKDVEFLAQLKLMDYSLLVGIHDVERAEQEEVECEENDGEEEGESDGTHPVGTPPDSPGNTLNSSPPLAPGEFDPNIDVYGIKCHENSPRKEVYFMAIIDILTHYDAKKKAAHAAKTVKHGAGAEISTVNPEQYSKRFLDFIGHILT

[11] = molecular target: Fibroblast growth factor receptor 1 (Homo sapiens) (UniProt P11362); assay: Inhibition of FGFR1 (unknown origin) at 10 uM by Ambit Kinomescan binding assay relative to control; values are per cent of control
[12] = system: Tyrosine-protein kinase ABL1 (Homo sapiens), P00519 [T315I]; assay: Inhibition of ABL1 T315I mutant (unknown origin) at 10 uM by Ambit Kinomescan binding assay relative to control; values are per cent of control
[13] = molecular target: Cyclin-dependent kinase 13 (Homo sapiens) (UniProt Q14004); assay: Inhibition of CDC2L5 (unknown origin) at 1 uM by Ambit Kinomescan binding assay relative to control
[14] = molecular target: Tyrosine-protein kinase CSK (Homo sapiens, UniProt P41240); assay: Inhibition of CSK (unknown origin) at 1 uM by Ambit Kinomescan binding assay relative to control
[15] = molecular target: DNA-PK/Ku70/Ku85 (Homo sapiens) (UniProt P78527+P12956+P13010); assay: Inhibition of DNAPK ATP labeling site harbouring GHDEREHPFLVKGGEDLR in human A-375 cells at 0.05 uM by KiNativ Profiling analysis relative to control; type: cell-based
[16] = molecular target: Serine/threonine-protein kinase/endoribonuclease IRE1 (Homo sapiens) (UniProt O75460); assay: Inhibition of ERN1 (unknown origin) at 1 uM by Ambit Kinomescan binding assay relative to control; values are per cent of control
[17] = molecular target: T3, Aurora kinase C (Homo sapiens) (UniProt Q9UQB9); assay: Inhibition of AURKC (unknown origin) at 1 uM by Ambit Kinomescan binding assay relative to control; values are per cent of control
T3 sequence (whole entry): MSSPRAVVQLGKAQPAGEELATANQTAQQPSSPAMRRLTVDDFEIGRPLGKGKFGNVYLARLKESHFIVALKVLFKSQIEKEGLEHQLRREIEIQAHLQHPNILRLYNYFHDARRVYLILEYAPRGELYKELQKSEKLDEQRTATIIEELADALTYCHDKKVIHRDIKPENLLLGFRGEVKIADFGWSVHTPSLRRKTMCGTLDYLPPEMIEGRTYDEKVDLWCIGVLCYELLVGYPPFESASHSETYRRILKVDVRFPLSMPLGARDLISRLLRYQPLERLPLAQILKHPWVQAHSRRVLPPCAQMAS

Sequence of Serine/threonine-protein kinase 32C (Homo sapiens) (Q86UX6 whole entry): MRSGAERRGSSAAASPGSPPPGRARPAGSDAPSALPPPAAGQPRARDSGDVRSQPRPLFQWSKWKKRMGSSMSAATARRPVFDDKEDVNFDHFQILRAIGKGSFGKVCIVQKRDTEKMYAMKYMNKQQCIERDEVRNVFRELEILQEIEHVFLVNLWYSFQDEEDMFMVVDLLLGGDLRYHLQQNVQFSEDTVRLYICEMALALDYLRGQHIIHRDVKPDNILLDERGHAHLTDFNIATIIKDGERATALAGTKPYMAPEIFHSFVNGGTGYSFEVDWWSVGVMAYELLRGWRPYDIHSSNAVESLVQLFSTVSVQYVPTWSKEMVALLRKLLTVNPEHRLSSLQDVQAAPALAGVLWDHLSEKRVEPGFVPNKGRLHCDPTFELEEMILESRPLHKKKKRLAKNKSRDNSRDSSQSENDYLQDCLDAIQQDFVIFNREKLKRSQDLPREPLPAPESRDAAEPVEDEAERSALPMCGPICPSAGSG
Sequence of Serine/threonine-protein kinase/endoribonuclease IRE1 (Homo sapiens) (O75460 19-977 limits assumed): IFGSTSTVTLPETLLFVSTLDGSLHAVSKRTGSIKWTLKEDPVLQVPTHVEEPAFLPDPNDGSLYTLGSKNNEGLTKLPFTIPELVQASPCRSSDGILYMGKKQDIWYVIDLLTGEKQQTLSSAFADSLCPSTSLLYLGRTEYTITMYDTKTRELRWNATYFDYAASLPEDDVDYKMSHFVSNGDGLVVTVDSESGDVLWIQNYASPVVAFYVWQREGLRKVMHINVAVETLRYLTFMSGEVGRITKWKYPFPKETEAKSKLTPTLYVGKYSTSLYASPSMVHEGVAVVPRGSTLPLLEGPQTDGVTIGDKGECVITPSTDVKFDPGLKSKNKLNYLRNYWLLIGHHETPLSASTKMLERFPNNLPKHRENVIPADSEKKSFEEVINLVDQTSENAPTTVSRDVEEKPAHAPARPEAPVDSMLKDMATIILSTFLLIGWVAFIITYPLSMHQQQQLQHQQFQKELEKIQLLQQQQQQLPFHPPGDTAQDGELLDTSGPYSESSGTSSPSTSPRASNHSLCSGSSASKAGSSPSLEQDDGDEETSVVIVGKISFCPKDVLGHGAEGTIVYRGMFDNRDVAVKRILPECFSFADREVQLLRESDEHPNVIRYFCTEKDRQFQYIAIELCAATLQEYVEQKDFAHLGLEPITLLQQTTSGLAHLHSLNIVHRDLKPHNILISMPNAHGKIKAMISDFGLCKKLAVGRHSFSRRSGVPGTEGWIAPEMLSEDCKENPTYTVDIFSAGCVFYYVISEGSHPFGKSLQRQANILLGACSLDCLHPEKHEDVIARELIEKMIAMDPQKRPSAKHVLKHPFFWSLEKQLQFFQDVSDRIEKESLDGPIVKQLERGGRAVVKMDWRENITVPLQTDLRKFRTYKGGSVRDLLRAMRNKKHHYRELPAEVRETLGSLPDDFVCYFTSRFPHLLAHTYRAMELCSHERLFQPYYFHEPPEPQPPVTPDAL
Sequence of Epidermal growth factor receptor (Homo sapiens) (P00533 whole entry): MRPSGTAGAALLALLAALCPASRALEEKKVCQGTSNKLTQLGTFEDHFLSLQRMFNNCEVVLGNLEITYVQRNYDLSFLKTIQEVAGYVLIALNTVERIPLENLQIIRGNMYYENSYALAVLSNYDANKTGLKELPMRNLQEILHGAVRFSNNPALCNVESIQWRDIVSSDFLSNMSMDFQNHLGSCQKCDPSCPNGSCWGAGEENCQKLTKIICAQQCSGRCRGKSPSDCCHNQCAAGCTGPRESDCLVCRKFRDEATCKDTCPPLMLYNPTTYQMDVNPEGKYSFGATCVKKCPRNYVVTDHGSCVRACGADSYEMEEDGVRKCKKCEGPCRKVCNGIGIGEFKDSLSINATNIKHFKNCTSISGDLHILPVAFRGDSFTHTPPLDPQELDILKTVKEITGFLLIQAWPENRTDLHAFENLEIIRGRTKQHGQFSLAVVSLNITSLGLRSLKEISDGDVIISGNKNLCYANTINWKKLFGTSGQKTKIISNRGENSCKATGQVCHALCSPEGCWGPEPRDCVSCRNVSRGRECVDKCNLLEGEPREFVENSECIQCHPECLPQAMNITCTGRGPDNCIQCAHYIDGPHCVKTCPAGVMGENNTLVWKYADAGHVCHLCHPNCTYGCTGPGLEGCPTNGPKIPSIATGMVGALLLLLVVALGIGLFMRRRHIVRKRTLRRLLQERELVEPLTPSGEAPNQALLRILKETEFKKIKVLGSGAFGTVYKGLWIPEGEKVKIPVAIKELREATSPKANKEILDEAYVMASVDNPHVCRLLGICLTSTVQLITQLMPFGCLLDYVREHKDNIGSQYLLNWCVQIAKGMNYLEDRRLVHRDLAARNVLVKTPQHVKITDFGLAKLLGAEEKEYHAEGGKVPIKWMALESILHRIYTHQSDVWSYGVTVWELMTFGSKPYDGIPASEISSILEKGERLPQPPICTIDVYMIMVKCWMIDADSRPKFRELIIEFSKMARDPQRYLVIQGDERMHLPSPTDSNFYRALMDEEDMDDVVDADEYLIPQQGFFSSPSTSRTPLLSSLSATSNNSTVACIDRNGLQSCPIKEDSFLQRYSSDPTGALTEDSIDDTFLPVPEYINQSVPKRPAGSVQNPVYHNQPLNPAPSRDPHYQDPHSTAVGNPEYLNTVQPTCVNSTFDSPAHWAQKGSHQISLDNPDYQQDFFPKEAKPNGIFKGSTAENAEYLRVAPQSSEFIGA
Sequence of Fibroblast growth factor receptor 1 (Homo sapiens) (P11362 22-822 limits assumed): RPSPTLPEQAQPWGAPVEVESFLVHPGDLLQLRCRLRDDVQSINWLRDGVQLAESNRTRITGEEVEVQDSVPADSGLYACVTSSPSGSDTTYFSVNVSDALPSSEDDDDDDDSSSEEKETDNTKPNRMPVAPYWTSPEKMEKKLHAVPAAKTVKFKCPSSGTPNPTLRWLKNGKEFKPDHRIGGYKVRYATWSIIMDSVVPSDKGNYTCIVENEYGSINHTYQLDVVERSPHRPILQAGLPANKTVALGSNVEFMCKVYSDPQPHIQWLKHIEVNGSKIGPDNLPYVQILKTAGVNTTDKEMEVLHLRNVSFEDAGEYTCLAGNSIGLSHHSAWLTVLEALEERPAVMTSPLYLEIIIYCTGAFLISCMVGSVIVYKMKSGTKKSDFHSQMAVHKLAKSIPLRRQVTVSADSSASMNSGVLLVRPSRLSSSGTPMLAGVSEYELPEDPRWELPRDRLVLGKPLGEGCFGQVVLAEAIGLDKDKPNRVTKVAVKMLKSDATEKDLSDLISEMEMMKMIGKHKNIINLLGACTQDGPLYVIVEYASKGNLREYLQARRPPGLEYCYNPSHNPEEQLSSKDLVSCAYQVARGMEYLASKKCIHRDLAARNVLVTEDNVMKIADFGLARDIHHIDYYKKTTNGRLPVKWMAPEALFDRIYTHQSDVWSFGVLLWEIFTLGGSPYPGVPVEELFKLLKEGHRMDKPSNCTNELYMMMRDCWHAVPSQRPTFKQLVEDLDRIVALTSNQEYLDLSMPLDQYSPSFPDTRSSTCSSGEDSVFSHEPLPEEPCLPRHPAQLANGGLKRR
Sequence of Calcium/calmodulin-dependent protein kinase type II subunit delta (Homo sapiens) (Q13557 whole entry): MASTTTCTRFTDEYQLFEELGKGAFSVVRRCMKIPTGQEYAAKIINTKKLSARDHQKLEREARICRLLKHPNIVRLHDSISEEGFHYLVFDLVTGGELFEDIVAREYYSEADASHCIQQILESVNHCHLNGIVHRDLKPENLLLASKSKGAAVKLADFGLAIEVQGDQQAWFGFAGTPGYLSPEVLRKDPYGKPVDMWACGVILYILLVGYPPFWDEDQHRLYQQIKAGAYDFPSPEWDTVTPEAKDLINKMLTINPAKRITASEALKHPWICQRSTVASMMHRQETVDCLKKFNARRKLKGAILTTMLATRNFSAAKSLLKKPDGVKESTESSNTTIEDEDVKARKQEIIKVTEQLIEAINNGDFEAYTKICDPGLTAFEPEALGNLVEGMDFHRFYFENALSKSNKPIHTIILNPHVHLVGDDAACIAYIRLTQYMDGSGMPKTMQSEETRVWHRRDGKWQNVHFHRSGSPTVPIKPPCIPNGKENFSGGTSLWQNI
Sequence of Dual specificity mitogen-activated protein kinase kinase 1 (Homo sapiens) (Q02750 whole entry): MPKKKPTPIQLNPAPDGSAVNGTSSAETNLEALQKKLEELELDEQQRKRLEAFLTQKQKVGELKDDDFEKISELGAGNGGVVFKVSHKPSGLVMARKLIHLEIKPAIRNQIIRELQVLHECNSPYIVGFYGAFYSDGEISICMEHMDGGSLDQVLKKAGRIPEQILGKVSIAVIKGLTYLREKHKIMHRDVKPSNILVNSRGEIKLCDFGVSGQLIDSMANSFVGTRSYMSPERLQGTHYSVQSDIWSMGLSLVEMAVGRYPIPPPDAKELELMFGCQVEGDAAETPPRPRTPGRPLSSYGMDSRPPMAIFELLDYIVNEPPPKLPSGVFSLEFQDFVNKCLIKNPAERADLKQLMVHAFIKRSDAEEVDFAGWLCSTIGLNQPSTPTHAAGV
Sequence of Tyrosine-protein kinase CSK (P41240 2-450 limits assumed): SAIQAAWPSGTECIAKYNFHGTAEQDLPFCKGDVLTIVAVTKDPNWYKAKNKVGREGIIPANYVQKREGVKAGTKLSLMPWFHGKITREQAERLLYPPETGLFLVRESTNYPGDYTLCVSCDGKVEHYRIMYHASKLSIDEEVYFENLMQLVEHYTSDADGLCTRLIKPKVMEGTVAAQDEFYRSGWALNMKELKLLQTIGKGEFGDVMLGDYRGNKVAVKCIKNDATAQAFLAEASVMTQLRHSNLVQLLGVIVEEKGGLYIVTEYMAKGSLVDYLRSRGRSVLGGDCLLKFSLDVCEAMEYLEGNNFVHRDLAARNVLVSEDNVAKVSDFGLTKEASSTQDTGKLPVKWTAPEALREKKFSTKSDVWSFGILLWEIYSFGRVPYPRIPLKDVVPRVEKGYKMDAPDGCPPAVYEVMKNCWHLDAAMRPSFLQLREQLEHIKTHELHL

CNc1cc(Oc2cc(C(=O)Nc3cc(N4CCN(C)CC4)cc(C(F)(F)F)c3)ccc2C)ncn1
inhibition [1]: 0.7% | inhibition [2]: 0.7% | inhibition [3]: 1.9% | inhibition [4]: 16.6% | inhibition [5]: 57.3% | inhibition [6]: 12.2%

CCN1CCN(Cc2ccc(NC(=O)c3ccc(C)c(Oc4ccnc5[nH]ccc45)c3)cc2C(F)(F)F)CC1
inhibition [7]: 5.6% | inhibition [8]: inactive | inhibition [9]: 82.3% | inhibition [10]: 13.2% | % of control [11]: 1.7% | percent of control [12]: 0%

CCN1CCN(Cc2ccc(NC(=O)c3ccc(C)c(/C=C/c4cnc5[nH]ccc5c4OC)c3)cc2C(F)(F)F)CC1
inhibition [13]: 100% | inhibition [14]: 2% | inhibition [15]: 21.3% | residual activity [16]: 100% | residual activity [17]: 34%
